Source: US9642861B2, “Methods of treating oral mucositis” (priority 2006, dated 2017)
Values joined by “and” are separate entries in the source; they are usually repeats but may differ in a detail not shown here. Equal values may be shown once.

System: oral mucositis induced in hamsters by acute radiation (40 Gy to left buccal cheek pouch)
Test: ACT-03 (Example 2): acute radiation model of oral mucositis in hamsters, mucositis scoring
Format: in vivo, Syrian Golden Hamsters
Set-up: key to Mucositis score / Mucositis Scores: 0: Pouch completely healthy. No erythema or vasodilation.; 1: Light to severe erythema and vasodilation. No erosion of mucosa.; 2: Severe erythema and vasodilation. Erosion of superficial aspects of mucosa leaving denuded areas. Decreased stippling of mucosa.; 3: Formation of off-white ulcers in one or more places. Ulcers may have a yellow/gray due to pseudomembrane. Cumulative size of ulcers should equal about ¼ of the pouch. Severe erythema and vasodilation.; 4: Cumulative seize of ulcers should equal about ½ of the pouch. Loss of pliability. Severe erythema and vasodilation.; 5: Virtually all of pouch is ulcerated. Loss of pliability (pouch can only partially be extracted from mouth); peak mean mucositis score: scale not given here
Conditions: for Mucositis Scores: first study, single animal, blinded scorer; for Mucositis score: individual animal, 2 blinded scorers
From the text: The acute radiation model in hamsters, developed by the Principal Investigator, has proven to be an accurate, efficient and cost-effective technique to provide a preliminary evaluation of anti-mucositis compounds (9). The course of mucositis in this model is well defined and results in peak scores approximately 14-16 Days following radiation. The acute model has little systemic toxicity, resulting in few hamster deaths, thus permitting the use of smaller groups (N=7-8) for initial efficacy studies. It has also been used to study specific mechanistic elements in the pathogenesis of mucositis. Molecules that show efficacy in the acute radiation model may be further evaluated in the more complex models of fractionated radiation, chemotherapy, or concomitant therapy.
In this study, an acute radiation dose of 40 Gy on day 0 was administered locally to the cheek pouch. Clinically significant mucositis was observed on days 12 through 28.
Seventy-two male Syrian Golden Hamsters were divided randomly into 9 groups of 8 animals and given an acute radiation dose of 40 Gy directed to their left buccal cheek pouch. This was accomplished by anesthetizing the animals and everting the left buccal pouch, while protecting the rest of the animal with a lead shield. […] Mucositis was evaluated clinically starting on Day 6, and continued on alternate days until day 28.
The grade of mucositis was scored, beginning on day 6, and for every second day thereafter, through and including day 28 (for scoring scheme, see Table 6 and FIG. 8). The effect on mucositis of each drug treatment compared to ip vehicle-treated controls was assessed according to the following parameters:
The difference in the number of days hamsters in each group have ulcerative (score≧3) mucositis.
On each evaluation day, the number of animals with a blinded mucositis score of ≧3 in each drug treatment group was compared to the vehicle-treated control group. Differences were compared on a cumulative basis and statistical significance was determined by chi-square analysis. Efficacy, in this analysis, is defined as a significant reduction in the number of days that a group of animals had ulcerations (scores≧3) when compared to the control group.
For each evaluation day the scores of the control group were compared to those of the treated groups using non-parametric rank sum analysis. Treatment success was considered as a statistically significant lowering of scores in the treated group on 2 or more days from day 6 to day 28.
All seventy-two (72) male Syrian Golden Hamsters were given an acute radiation dose of 40 Gy directed to their left buccal cheek pouch. This was accomplished by anesthetizing the animals and everting the left buccal pouch, while protecting the rest of the animal with a lead shield. […] Mucositis was evaluated clinically starting on day 6, and continuing on alternate days until day 28. The study timeline is depicted in FIG. 7. Dose levels were determined based on the results of a previous acute toxicity study (data not published), and in the prior mucositis study of Example 1, shown in Table 5.
Mucositis was induced using a standardized acute radiation protocol. A single dose of radiation (40 Gy/dose) was administered to all animals on day 0. Radiation was generated with a 250 kilovolt potential (15-ma) source at a focal distance of 50 cm, hardened with a 0.35 mm Cu filtration system. Irradiation targeted the left buccal pouch mucosa at a rate of 3.2 Gy/minute. Prior to irradiation, animals were anesthetized with an intra-peritoneal injection of Ketamine (160 mg/kg) and Xylazine (8 mg/kg). The left buccal pouch was everted, fixed and isolated using a lead shield.
The mucositis score, weight change and survival were measured throughout the study as described above. For the evaluation of mucositis, the animals were anesthetized with isoflurane and the left pouch everted. […]

[1] = group 2: ip 30 mg/kg once daily day −1 to 3
[2] = group 2: ip 30 mg/kg qd day −1 to 3
[3] = group 3: ip 3 mg/kg bid day −1 to 3
[4] = group 4: ip 10 mg/kg bid day −1 to 3
[5] = group 4: ip 10 mg/kg twice daily day −1 to 3
[6] = group 5: ip 30 mg/kg bid day −1 to 3
[7] = group 5: ip 30 mg/kg twice daily day −1 to 3
[8] = group 6: ip 30 mg/kg once daily day 0 to 3
[9] = group 6: ip 30 mg/kg qd day 0 to 3
[10] = group 7: ip 30 mg/kg bid day 0 to 3
[11] = group 7: ip 30 mg/kg twice daily day 0 to 3
[12] = group 8: ip 30 mg/kg twice daily on day 0
[13] = group 9: ip 30 mg/kg bid day 0 & 7

SMILES: [Cl-].[Cl-].[Mn+2].c1cc2nc(c1)CN[C@@H]1CCCC[C@H]1NCCN[C@@H]1CCCC[C@H]1NC2 [M40403]
- Mucositis Scores (Group 8: 30 mg/kg/dose twice daily on day 0, day 6, 30 mg/kg): 0 (4×) and 1 (2×)
- Mucositis Scores (Group 8: 30 mg/kg/dose twice daily on day 0, day 8): 0
- Mucositis Scores (Group 8: 30 mg/kg/dose twice daily on day 0, day 10, 30 mg/kg): 0 (3×) and 1 (3×)
- Mucositis Scores (Group 8: 30 mg/kg/dose twice daily on day 0, day 12, 30 mg/kg): 2 (5×) and 1
- Mucositis Scores (Group 8: 30 mg/kg/dose twice daily on day 0, day 14, 30 mg/kg): 3 (4×) and 2 (2×)
- Mucositis Scores (Group 8: 30 mg/kg/dose twice daily on day 0, day 16, 30 mg/kg): 2 (4×) and 3 (2×)
- Mucositis Scores (Group 8: 30 mg/kg/dose twice daily on day 0, day 18, 30 mg/kg): 1 (3×) and 2 and 3 (2×)
- Mucositis Scores (Group 8: 30 mg/kg/dose twice daily on day 0, day 20, 30 mg/kg): 2 (2×) and 1 (2×) and 3 (2×)
- Mucositis Scores (Group 8: 30 mg/kg/dose twice daily on day 0, day 22): 2
- Mucositis Scores (Group 8: 30 mg/kg/dose twice daily on day 0, day 24, 30 mg/kg): 0 (3×) and 2 (2×) and 1
- Mucositis Scores (Group 8: 30 mg/kg/dose twice daily on day 0, day 26, 30 mg/kg): 1 (2×) and 0 (3×) and 2
- Mucositis Scores (Group 8: 30 mg/kg/dose twice daily on day 0, day 28, 30 mg/kg): 0 (3×) and 1 (3×)
- Mucositis Scores (Group 9: 30 mg/kg/dose twice daily on day 0 and on day 7, day 6, 30 mg/kg): 0 and 1
- Mucositis Scores (Group 9: 30 mg/kg/dose twice daily on day 0 and on day 7, day 8, 30 mg/kg): 0
- Mucositis Scores (Group 9: 30 mg/kg/dose twice daily on day 0 and on day 7, day 10, 30 mg/kg): 1 and 0
- Mucositis Scores (Group 9: 30 mg/kg/dose twice daily on day 0 and on day 7, day 12, 30 mg/kg): 2
- Mucositis Scores (Group 9: 30 mg/kg/dose twice daily on day 0 and on day 7, day 14, 30 mg/kg): 2
- Mucositis Scores (Group 9: 30 mg/kg/dose twice daily on day 0 and on day 7, day 16, 30 mg/kg): 3
- Mucositis Scores (Group 9: 30 mg/kg/dose twice daily on day 0 and on day 7, day 18, 30 mg/kg): 3
- Mucositis Scores (Group 9: 30 mg/kg/dose twice daily on day 0 and on day 7, day 20, 30 mg/kg): 2
- Mucositis Scores (Group 9: 30 mg/kg/dose twice daily on day 0 and on day 7, day 22, 30 mg/kg): 2 (2×) and 0
- Mucositis Scores (Group 9: 30 mg/kg/dose twice daily on day 0 and on day 7, day 24, 30 mg/kg): 0 and 1 (2×)
- Mucositis Scores (Group 9: 30 mg/kg/dose twice daily on day 0 and on day 7, day 26, 30 mg/kg): 2 and 1 (2×)
- Mucositis Scores (Group 9: 30 mg/kg/dose twice daily on day 0 and on day 7, day 28, 30 mg/kg): 1 and 2 and 0
- day of peak mean mucositis score [1]: 16 days
- peak mean mucositis score [1]: 2.8
- Chi Sq v control, days with mucositis score >=3 [2]: 4.4860
- Days <3 (animal days with a mucositis score below 3) [2]: 108
- Days >=3 (animal days with a mucositis score of three or more) [2]: 36
- % Days >=3 (percentage of animal days with a mucositis score of 3 or higher) (group 2: ip 30 mg/kg qd day −1 to 3, 30 mg/kg): 25%
- Chi Sq v control, days with mucositis score >=3 [3]: 5.3950
- Days <3 (animal days with a mucositis score below 3) [3]: 144
- Days >=3 (animal days with a mucositis score of three or more) [3]: 48
- % Days >=3 (percentage of animal days with a mucositis score of 3 or higher) (group 3: ip 3 mg/kg bid day −1 to 3, 3 mg/kg): 25%
- peak mean mucositis score (group 3: ip 3 mg/kg twice daily day −1 to 3): 2.9
- Chi Sq v control, days with mucositis score >=3 [4]: 1.1996
- Days <3 (animal days with a mucositis score below 3) [4]: 136
- Days >=3 (animal days with a mucositis score of three or more) [4]: 56
- % Days >=3 (percentage of animal days with a mucositis score of 3 or higher) (group 4: ip 10 mg/kg bid day −1 to 3, 10 mg/kg): 29.2% and 29.17%
- day of peak mean mucositis score [5]: 16 days
- peak mean mucositis score [5]: 3.0
- Chi Sq v control, days with mucositis score >=3 [6]: 7.229
- Days <3 (animal days with a mucositis score below 3) [6]: 112
- Days >=3 (animal days with a mucositis score of three or more) [6]: 32
- % Days >=3 (percentage of animal days with a mucositis score of 3 or higher) (group 5: ip 30 mg/kg bid day −1 to 3, 30 mg/kg): 22.2% and 22.22%
- day of peak mean mucositis score [7]: 16 days
- peak mean mucositis score [7]: 2.8
- Mucositis score (group 6, day 6): 1 and 0 (4×)
- Mucositis score (group 6, day 8): 0 (4×) and 1
- Mucositis score (group 6, day 10): 0 (4×) and 1
- Mucositis score (group 6, day 12): 2 (4×) and 0
- Mucositis score (group 6, day 14): 2 (3×) and 3 (2×)
- Mucositis score (group 6, day 16): 4 and 3 (4×)
- Mucositis score (group 6, day 18): 4 and 3 (2×) and 2 (2×)
- Mucositis score (group 6, day 20): 4 and 3 (2×) and 2 (2×)
- Mucositis score (group 6, day 22): 4 and 2 (2×) and 0 and 1
- Mucositis score (group 6, day 24): 4 and 2 (4×)
- Mucositis score (group 6, day 26): 3 and 2 (3×) and 1
- Mucositis score (group 6, day 28): 2 (2×) and 0 and 1 (2×)
- day of peak mean mucositis score [8]: 16 days
- peak mean mucositis score [8]: 3.2
- Chi Sq v control, days with mucositis score >=3 [9]: 1.029
- Days <3 (animal days with a mucositis score below 3) [9]: 100
- Days >=3 (animal days with a mucositis score of three or more) [9]: 44
- % Days >=3 (percentage of animal days with a mucositis score of 3 or higher) (group 6: ip 30 mg/kg qd day 0 to 3, 30 mg/kg): 30.6% and 30.56%
- Mucositis score (group 7, day 6): 0
- Mucositis score (group 7, day 8): 0 (2×) and 1
- Mucositis score (group 7, day 10): 1 and 0 (2×)
- Mucositis score (group 7, day 12): 2
- Mucositis score (group 7, day 14): 2
- Mucositis score (group 7, day 16): 1 (2×) and 2
- Mucositis score (group 7, day 18): 1 and 0 and 3
- Mucositis score (group 7, day 20): 1 (2×) and 0
- Mucositis score (group 7, day 22): 0 and 1 (2×) and 2
- Mucositis score (group 7, day 24): 1 (2×) and 0 (2×)
- Mucositis score (group 7, day 26): 1 (3×) and 0
- Mucositis score (group 7, day 28): 1 (3×) and 0
- Chi Sq v control, days with mucositis score >=3 [10]: 38.3440
- Days <3 (animal days with a mucositis score below 3) [10]: 174
- Days >=3 (animal days with a mucositis score of three or more) [10]: 18
- % Days >=3 (percentage of animal days with a mucositis score of 3 or higher) (group 7: ip 30 mg/kg bid day 0 to 3, 30 mg/kg): 9.4% and 9.38%
- day of peak mean mucositis score [11]: 16 days
- peak mean mucositis score [11]: 2.2
- Chi Sq v control, days with mucositis score >=3 (group 8: ip 30 mg/kg bid day 0): 25.681
- Days <3 (animal days with a mucositis score below 3) (group 8: ip 30 mg/kg bid day 0): 166
- Days >=3 (animal days with a mucositis score of three or more) (group 8: ip 30 mg/kg bid day 0): 26
- % Days >=3 (percentage of animal days with a mucositis score of 3 or higher) (group 8: ip 30 mg/kg bid day 0, 30 mg/kg): 13.5% and 13.54%
- day of peak mean mucositis score [12]: 14 days
- peak mean mucositis score [12]: 2.4
- Chi Sq v control, days with mucositis score >=3 [13]: 19.113
- Days <3 (animal days with a mucositis score below 3) [13]: 142
- Days >=3 (animal days with a mucositis score of three or more) [13]: 26
- % Days >=3 (percentage of animal days with a mucositis score of 3 or higher) (group 9: ip 30 mg/kg bid day 0 & 7, 30 mg/kg): 15.5% and 15.48%
- peak mean mucositis score (group 9: ip 30 mg/kg twice daily on day 0 and day 7): 2.4
